Measurements taken from US12570956B2, “Efficient derivation of stable pluripotent bovine embryonic stem cells” (The Regents of the University of California, priority 2018, dated 2026).
Entries after “also recorded” stand apart in the source; their conditions may differ.

Key:
bovine blastocyst = conditions: added during in vitro pre-implantation development; cited from earlier work
bovine blastocysts = experiment: Derivation of CTFR-bESC lines from plated blastocysts/ICMs; format: cell-based; conditions: IWR1 not present in the culture medium
Experimental: CTFR-bESCs derivation efficiency was measured as the percentage of embryos successfully establishing a CTFR-bESC line at passage 3 over the total number of embryos seeded. To optimize the CTFR-bESCs derivation efficiency, Applicants evaluated three different plating methods: whole blastocyst, mechanical isolation of the ICM by microdissection, and isolation of the ICM by immunosurgery. […] The initial outgrowths from the three methods were slightly different. The immunosurgery-derived outgrowths were smaller and more homogeneous in cell morphology than those from the other two methods.
Individual whole blastocysts or isolated ICMs were placed in separate wells of a 12-well dish seeded with a monolayer of gamma-irradiated mouse embryonic fibroblasts (MEF) and cultured in CTFR medium: a custom mTeSR-like basal medium (completely devoid of growth factors FGF2 and TGFβ) containing low fatty acid BSA (MP Biomedicals NZ), similar to basal medium in the published recipe([…]), and incubated at 37° C. and 5% CO2.
Thereafter, the media was changed daily. Outgrowths (after 6-7 days in culture) were dissociated and passaged using TrypLE (Gibco, 12563011) and re-seeded in the presence of Rho Kinase (ROCK) inhibitor (Y-27632, 10 μM) onto newly prepared wells containing MEF and fresh medium (FIG. 1).

[1] = tested on: bovine embryonic stem cells; experiment: Immunostaining of pluripotency markers in bESCs grown with or without IWR1; format: cell-based; conditions: withdrawal of IWR1 from the culture media; four passages
Experimental: FIG. 3: Inhibition of the canonical Wnt-signaling pathway is a requirement for self-renewal of pluripotent CTFR-bESCs. Immunostaining of the core pluripotency markers POU5F1 and SOX2 in bovine embryonic stem cells grown in medium supplemented with or devoid of IWR1 (+IWR1 and −IWR1, respectively). Cells were grown for four passages in the two conditions before immunofluorescence analysis. Scale bar 100 μm.
Individual whole blastocysts or isolated ICMs were placed in separate wells of a 12-well dish seeded with a monolayer of gamma-irradiated mouse embryonic fibroblasts (MEF) and cultured in CTFR medium: a custom mTeSR-like basal medium (completely devoid of growth factors FGF2 and TGFβ) containing low fatty acid BSA (MP Biomedicals NZ), similar to basal medium in the published recipe(45) supplemented with 20 ng/ml human FGF2 and 2.5 μM IWR1 (CTFR), and incubated at 37° C. and 5% CO2.
Once established, CTFR-bESC lines were grown at 37° C. and 5% CO2 on wells containing MEF and passaged every 4-5 days at a 1:10 split ratio. To increase cell survival, optionally, ROCK inhibitor (Y-27632, 10 μM) was added to the wells 1 h prior to passage and was also added to the newly prepared wells containing MEF and fresh culture media medium during 24 hrs. Media change was done daily between passages. ROCK inhibitor is dispensable for routine maintenance and passaging of CTFR-bESCs. […]

CTFR-bESCs [2] = experiment: Routine maintenance and passaging of CTFR-bESCs; format: cell-based, bovine; conditions: Y-27632, 10 μM
Experimental: Once established, CTFR-bESC lines were grown at 37° C. and 5% CO2 on wells containing MEF and passaged every 4-5 days at a 1:10 split ratio. To increase cell survival, optionally, ROCK inhibitor (Y-27632, 10 μM) was added to the wells 1 h prior to passage and was also added to the newly prepared wells containing MEF and fresh culture media medium during 24 hrs. Media change was done daily between passages. ROCK inhibitor is dispensable for routine maintenance and passaging of CTFR-bESCs.

CTFR-bESCs [3] = experiment: Feeder-free culture of CTFR-bESCs on Matrigel or Vitronectin; format: cell-based, bovine; conditions: medium supplemented with Activin-A (10 ng/mL), four passages
Experimental: FIG. 9. CTFR-bESCs can be cultured in feeder-free conditions. Brightfield images and immunostaining for pluripotency markers OCT4 and SOX2 of CTFR-bESCs cultured for four passages on mouse embryonic fibroblast (MEF) feeder (Control) or different extracellular matrices (Matrigel or Vitronectin) conditions, with or without the supplementation of Activin-A (10 ng/mL). Control: inactivated MEFs.
Culturing CTFR-bESCs in absence of feeder cells lead to cellular differentiation after a few passages.

bovine embryos = conditions: in vitro treatment from day 5 to day 7 after fertilization; cited from earlier work

Molecule: COc1cccc(-c2cc(NCc3ccc4c(c3)OCO4)nc(N)n2)c1 [AMBMP, 2-amino-4-(3,4-(methylenedioxy)benzylamino)-6-(3-methoxyphenyl)pyrimidine]
- bovine blastocyst development (bovine blastocyst): detrimental effects
- total number of cells in the ICM (bovine blastocyst): reduces

Molecule: O=C(Nc1cccc2cccnc12)c1ccc(N2C(=O)[C@@H]3[C@H](C2=O)[C@@H]2C=C[C@H]3C2)cc1 [IWR1]
- establishment of bESC line (bovine blastocysts): no bESC lines could be established
- pluripotency marker expression (POU5F1, SOX2) [1]: loss of pluripotency marker expression

Molecule: C[C@@H](N)[C@H]1CC[C@H](C(=O)Nc2ccncc2)CC1 [Y-27632]
- need for ROCK inhibitor in maintenance and passaging (CTFR-bESCs [2]): dispensable

Molecule: Activin-A: culture supplement used with an organic matrix to replace feeder cells
- propagation and pluripotency marker expression (OCT4, SOX2) without feeder cells (CTFR-bESCs [3]): allowed the propagation of the cells for multiple passages while maintaining expression of pluripotency markers; also recorded: maintained expression of pluripotency markers and a morphology consistent with CTFR-bESC

B1: DKK1: protein inhibitor of the canonical WNT-signaling pathway, naturally secreted by the female reproductive tract (protein, UniProt O94907 32-266, looked up)
Dickkopf-related protein 1: TLNSVLNSNAIKNLPPPLGGAAGHPGSAVSAAPGILYPGGNKYQTIDNYQPYPCAEDEECGTDEYCASPTRGGDAGVQICLACRKRRKRCMRHAMCCPGNYCKNGICVSSDQNHFRGEIEETITESFGNDHSTLDGYSRRTTLSSKMYHTKGQEGSVCLRSSDCASGLCCARHFWSKICKPVLKEGQVCTKHRRKGSHGLEIFQRCYCGEGLSCRIQKDHHQASNSSRLHTCQRH
- embryo survival after transfer to recipients (bovine embryos): significantly improve
